According to patent US6030960A, “Method of treating hepatitis virus infections” (priority 1998, dated 2000):
Several values for one entry are separate records, joined by “and”; a condition that tells them apart may be missing. Equal values may be shown once. Entries after “also recorded” stand apart in the source; their conditions may differ. Read-outs that look alike come from different tables or passages of the source.

What was measured:
Assay type in all cases: cell-based
[1] = Cytotoxicity of alkyl lipids, neutral red dye uptake (Table 1); conditions: human, hep-g2 cells
Summary of the method: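 HepG2 cells carrying tandem HBV genomes, with a G418-resistance plasmid, were given four serial compound concentrations in triplicate in RPMI-1640 for nine days at 37° C, with periodic medium replacement. Viability was measured by 0.01% neutral red uptake (A510) and expressed as percent of untreated control wells ±SD.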

[2] = system: Hepatitis B virus; test: CP-51 against HBV-induced antigen syntheses in HEP-G2 cells persistently infected with HBV (Table 3); conditions: for activity at 10 µM / inhibition at 10 µM: Hepatitis B virus; for activity at 10 µM: HepG2, 216 h, 9 days treatment; for inhibition at 10 µM: HepG2
Description: (§1) HEP-G2 cells persistently infected with HBV were treated daily with fresh D-MEM containing 20% FBS and 10 μM compound. After 9 days incubation and treatment, the overlay medium was harvested to assay the quantity of Hepatitis B virus s antigen (HBsAg) and HBeAg by EIA (Abbott Laboratories). The overlay medium was diluted to levels of antigen in the linear range of the assay. Standard curves using dilutions of positive HBsAg and HBeAg controls were included in each assay. Virion DNA was assayed using the method set forth in Korba and Gerin, Antiviral Res., 19, 5,5-70 (1992), incorporated by reference herein. HBV DNA was extracted from the overlay medium containing virus particles and analyzed by a slot-blot hybridization technique using ^32 P-labelled 3.2 Kb Eco R1 HBV DNA fragment by comparisons to HBV standards present on nitrocellulose filters using an AMBIS beta scanner. EC90 values (90% effective concentration, i.e., drug concentration which induces a 90% decrease in the levels of HBV DNA replication intermediates in treated versus control cells) were calculated by linear regression analysis. The relative levels of HBsAg, HBeAg and virion DNA were calulated as a percentage of the average levels obtained from the untreated controls.
In contrast, CP-51 inhibited HBeAg and HBcAg syntheses by 76 and 68%, respectively.

[3] = system: Hepatitis B virus; test: Effects of CP-51 on HBV-induced DNA and RNA synthesis (Table 4); conditions: for mrna remaining at 10 µM / activity at 10 µM / inhibition at 10 µM: Hepatitis B virus; for mrna remaining at 10 µM / activity at 10 µM: 9 days treatment
Description: as §1
Experiments were performed to determine the effects of CP-51 on HBV induced DNA and RNA syntheses. HEP-G2 cells persistently infected with HBV were treated daily with fresh D-MEM containing 20% FBS and 10 μM compound. After 9 days incubation and treatment the cells and overlay medium were harvested separately to assay the quantity of nucleic acids. Details of the methodology of the assays are given in Section B above. Extracellular virion DNA in untreated cells ranged from 50 to 150 pg/ml in the overlay medium. Intracellular HBV DNA replication intermediates (RI) in untreated cells ranged from 50 to 100 pg/μg cell DNA. Hybridization analysis results in about 1 pg intracellular HBV DNA/μg cellular DNA to 2-3 genomic copies per cell and 1.0 pg of extracellular HBV DNA/ml overlay medium to […] viral particles/ml. HBV RNA was analyzed by Northern blot hybridization analysis using a ^32 P-labeled 3.2 Kb gel-purified cloned genomic probe. Quantitive analysis of intracellular HBV DNA anc 14BV RNA was performed using an AMBIS beta scanner.

[4] = system: Hepatitis B virus; test: Effect of alkyl lipids on HBV replication in HBV persistently infected human HEP G2 cells (Table 6); conditions: for Intracellular HBV DNA, Mono (episomal 3.2-3.8 Kb HBV genomes) / Intracellular HBV DNA, RI (replication intermediates): nine days
Summary of the method: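 Persistently HBV-infected HepG2 cells exposed to compound for nine days at 37 °C, intracellular HBV DNA analysed 24 h after day nine. Episomal 3.2-3.8 Kb genomes and replication intermediates normalized to integrated HBV DNA; virion DNA detection cut-off 0.1 pg DNA/ml culture medium.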

[5] = system: Hepatitis B virus; test: Effect on synthesis of antigen markers in persistently infected human HEP G2 cell cultures (Table 7)
Summary of the method: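 Persistently infected HepG2 cells treated with compound for nine days at 37° C. Culture medium then harvested: HBsAg and HBeAg quantified by EIA, virion DNA by hybridisation-based DNA measurement. Sensitivity cut-off 0.1 pg DNA/ml medium.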

[6] = system: Hepatitis B virus; test: Effect of alkyl lipid on HBV induction of antigen markers, DNA and RNA in persistently infected human HEP-G2 cell cultures (Table 8); conditions: for activity at 10 µM: Hepatitis B virus, HepG2, 216 h, nine days, untreated controls 100
Description: Further analyses were carried out with compound CP-51. Again, the cells were treated for nine days at 37° C. The overlay medium was harvested to measure levels of HBsAg, HBeAg, HBcAg, virion DNA, RI DNA and RNA levels. HBsAg and HBeAg were assayed by EIA (Abbott Laboratories). HBcAg was assayed by a solid phase EIA. HBV RNA was analyzed by Northern blot hybridization using a ^32 P-labelled 3.2 Kb genomic probe. Intracellular HBV RNA and RI HBV DNA was quantitated using a AMBIS beta scanner.

CCCCCCCCCCCCCCCCCC(=O)NCC(COP(=O)([O-])OCC[N+](C)(C)C)OCC (racemic) [CP-51, rac-3-octadecanamido-2-ethyoxy-1-propylphosphocholine]
cytotoxicity at 216 h, 30 µM [1]: 4%
cytotoxicity at 216 h, 100 µM [1]: 29%
viability at 216 h, 3 µM [1]: 101 ± 1%
viability at 216 h, 10 µM [1]: 100 ± 4%
viability at 216 h, 30 µM [1]: 96 ± 2%
viability at 216 h, 100 µM [1]: 71 ± 1%
inhibitory activity against HBsAg synthesis ([2]; 10 μM, in words): no inhibitory activity
activity at 10 µM ([2]; 10 μM, read-out: Relative Levels of HBcAg): 32%
activity at 10 µM ([2]; 10 μM, read-out: Relative Levels of HBeAg): 24%
activity at 10 µM ([2]; 10 μM, read-out: Relative Levels of HBsAg): 88%
inhibition at 10 µM ([2]; 10 μM, read-out: inhibition of HBcAg synthesis): 68%
inhibition at 10 µM ([2]; 10 μM, read-out: inhibition of HBeAg synthesis): 76%
inhibitory activity against HBeAg and HBcAg (core and e antigen) syntheses ([2]; in words): selective inhibitory activity; also recorded: inhibit the production of the HBV antigens core antigen and e antigen
effect on HBV-induced RNA syntheses ([3]; 10 μM, in words): no significant effects
mrna remaining at 10 µM ([3]; HepG2, 216 h, 10 μM, read-out: Relative Level of 2.1 Kb RNA): 112%
activity at 10 µM ([3]; HepG2, 216 h, 10 μM, read-out: Relative Level of 3.2 Kb DNA): 42%
mrna remaining at 10 µM ([3]; HepG2, 216 h, 10 μM, read-out: Relative Level of 3.6 Kb RNA): 84%
mrna remaining at 10 µM ([3]; HepG2, 216 h, 10 μM, read-out: Relative Level of Total RNA): 112%
activity at 10 µM ([3]; HepG2, 216 h, 10 μM, read-out: Relative Level of Virion DNA): 2%
activity at 10 µM ([3]; HepG2, 216 h, 10 μM, replication intermediates, read-out: Relative Level of HBV RI): 12%
inhibition at 10 µM ([3]; HepG2, 216 h, 10 μM, read-out: inhibition of 3.2 Kb DNA synthesis): 58%
inhibition at 10 µM ([3]; 10 μM, read-out: inhibition of replication intermediates (RI) DNA synthesis): 88%
inhibition at 10 µM ([3]; 10 μM, read-out: inhibition of virion DNA synthesis): 98%
selectivity for HBV-induced antigens and nucleic acids ([3]; in words): selective for inhibiting HBV-induced HBcAg, HBeAg, virion DNA and HBV RI syntheses but not HBsAg or RNA syntheses
Intracellular HBV DNA, Mono (episomal 3.2-3.8 Kb HBV genomes) ([4]; 0.1 μM): 2.7 pg/μg Cell DNA and 2.4 pg/μg Cell DNA and 2.3 pg/μg Cell DNA and 2.5 pg/μg Cell DNA and 2.9 pg/μg Cell DNA and 2.2 pg/μg Cell DNA and 2.6 pg/μg Cell DNA and 2.1 pg/μg Cell DNA
Intracellular HBV DNA, RI (replication intermediates) ([4]; 0.1 μM): 54 pg/μg Cell DNA and 62 pg/μg Cell DNA and 51 pg/μg Cell DNA
HBV Virion DNA ([4]; 1 μM, Day 9): 9 pg/ml Culture Medium and 8 pg/ml Culture Medium and 12 pg/ml Culture Medium and 10 pg/ml Culture Medium and 13 pg/ml Culture Medium and 11 pg/ml Culture Medium and 14 pg/ml Culture Medium and 16 pg/ml Culture Medium
Intracellular HBV DNA, Mono (episomal 3.2-3.8 Kb HBV genomes) ([4]; 1 μM): 2.2 pg/μg Cell DNA and 2.3 pg/μg Cell DNA and 2.4 pg/μg Cell DNA and 2.6 pg/μg Cell DNA and 2.0 pg/μg Cell DNA and 2.1 pg/μg Cell DNA
Intracellular HBV DNA, RI (replication intermediates) ([4]; 1 μM): 12 pg/μg Cell DNA and 16 pg/μg Cell DNA and 17 pg/μg Cell DNA and 14 pg/μg Cell DNA and 13 pg/μg Cell DNA and 23 pg/μg Cell DNA and 21 pg/μg Cell DNA and 18 pg/μg Cell DNA
HBV Virion DNA ([4]; 10 μM, Day 0): 59 pg/ml Culture Medium and 58 pg/ml Culture Medium and 60 pg/ml Culture Medium and 78 pg/ml Culture Medium and 51 pg/ml Culture Medium and 56 pg/ml Culture Medium and 64 pg/ml Culture Medium
HBV Virion DNA ([4]; 10 μM, Day 3): 55 pg/ml Culture Medium and 49 pg/ml Culture Medium and 44 pg/ml Culture Medium and 48 pg/ml Culture Medium and 33 pg/ml Culture Medium and 30 pg/ml Culture Medium and 36 pg/ml Culture Medium and 40 pg/ml Culture Medium
HBV Virion DNA ([4]; 10 μM, Day 6): 20 pg/ml Culture Medium and 13 pg/ml Culture Medium and 10 pg/ml Culture Medium and 18 pg/ml Culture Medium and 12 pg/ml Culture Medium and 11 pg/ml Culture Medium and 14 pg/ml Culture Medium
Intracellular HBV DNA, Mono (episomal 3.2-3.8 Kb HBV genomes) ([4]; 10 μM): 1.7 pg/μg Cell DNA and 1.9 pg/μg Cell DNA and 1.8 pg/μg Cell DNA and 2.0 pg/μg Cell DNA and 1.3 pg/μg Cell DNA and 1.1 pg/μg Cell DNA and 1.2 pg/μg Cell DNA and 1.0 pg/μg Cell DNA
inhibition of HBV virion DNA and intracellular HBV RI DNA levels ([4]; in words, versus ddC): markedly inhibited; also recorded: substantially inhibited
Relative Level of HBeAg ([5]; 10 μM, nine days, 12960 min): 20 % of Untreated Control
Relative Level of HBsAg ([5]; 10 μM, nine days, 12960 min): 78 % of Untreated Control and 114 % of Untreated Control
activity at 10 µM ([5]; Hepatitis B virus, HepG2, 216 h, 10 μM, nine days, read-out: Relative Level of HBeAg): 23%
effect on HBsAg levels released into the culture medium ([5]; in words): None of the compounds tested
reduction in HBeAg and virion DNA levels ([5]; in words): caused a reduction; also recorded: most active compounds in suppressing HBeAg and virion DNA levels
activity at 10 µM ([6]; read-out: Relative Level of HBcAg): 32%
activity at 10 µM ([6]; read-out: Relative Level of HBeAg): 24%
activity at 10 µM ([6]; read-out: Relative Level of HBsAg): 88%
activity at 10 µM ([6]; read-out: Relative Level of Intracellular HBV-DNA): 12%
activity at 10 µM ([6]; read-out: Relative Level of RI DNA): 42%
activity at 10 µM ([6]; read-out: Relative Level of Total RNA): 84%
activity at 10 µM ([6]; read-out: Relative Level of Virion DNA): 2%
inhibition of Hepatitis B core antigen (HBcAg) levels ([6]; in words): significantly inhibited
level or size of HBV induced RNA transcripts of HBsAg ([6]; in words): did not significantly alter
